Laboratory results: ChEMBL document CHEMBL1131812, “Novel conformationally restricted tetracyclic analogs of delta8-tetrahydrocannabinol” (Bioorg Med Chem Lett, 1999)

Tests used:
Cannabinoid receptor 1 = Cannabinoid receptor 1 (Rattus norvegicus, UniProt P20272); assay: Binding affinity towards cannabinoid receptor 1 in rat forebrain membranes.; type: cell membranes
Cannabinoid receptor 2 = Cannabinoid receptor 2 (Mus musculus, UniProt P47936); assay: Binding affinity towards Cannabinoid receptor 2 in mouse spleen membranes; type: cell membranes
Cannabinoid receptor 2, sequence (P47936 whole entry): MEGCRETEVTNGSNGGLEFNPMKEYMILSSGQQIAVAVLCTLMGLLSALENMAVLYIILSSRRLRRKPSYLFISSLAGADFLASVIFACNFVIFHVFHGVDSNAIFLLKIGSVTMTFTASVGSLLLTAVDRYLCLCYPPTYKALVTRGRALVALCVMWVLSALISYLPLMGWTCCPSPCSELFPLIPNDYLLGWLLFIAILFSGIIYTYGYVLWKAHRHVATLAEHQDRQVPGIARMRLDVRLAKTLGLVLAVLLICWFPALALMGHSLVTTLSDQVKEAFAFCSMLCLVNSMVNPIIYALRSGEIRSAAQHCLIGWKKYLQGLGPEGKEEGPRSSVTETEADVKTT

Cannabinoid receptor 1, sequence (P20272 whole entry): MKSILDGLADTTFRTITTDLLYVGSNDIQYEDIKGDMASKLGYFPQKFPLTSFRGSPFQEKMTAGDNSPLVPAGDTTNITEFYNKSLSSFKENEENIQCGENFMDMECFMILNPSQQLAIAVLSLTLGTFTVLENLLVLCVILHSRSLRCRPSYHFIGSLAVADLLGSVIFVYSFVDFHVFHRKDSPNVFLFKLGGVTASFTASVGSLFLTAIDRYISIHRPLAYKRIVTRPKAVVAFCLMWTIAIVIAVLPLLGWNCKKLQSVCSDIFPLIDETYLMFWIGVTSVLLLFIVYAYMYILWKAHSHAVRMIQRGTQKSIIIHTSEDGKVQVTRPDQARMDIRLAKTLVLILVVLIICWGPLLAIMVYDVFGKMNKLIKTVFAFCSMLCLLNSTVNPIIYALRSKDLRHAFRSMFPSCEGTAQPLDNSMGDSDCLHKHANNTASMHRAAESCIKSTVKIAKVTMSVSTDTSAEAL

Q: With `CCCCCCC1CCCc2c1cc1c(c2O)[C@@H]2CC(C)=CC[C@H]2C(C)(C)O1` (stereo partly drawn) as the molecule, how does the Ki (Cannabinoid receptor 1) read?
A: 22.3 nM

Q: And the Ki (Cannabinoid receptor 2)?
A: 58.6 nM

Q: For `CCCCCCC1CCCc2c1cc(O)c1c2OC(C)(C)[C@@H]2CC=C(C)C[C@@H]12` (stereo partly drawn), which Ki (Cannabinoid receptor 1) is on record?
A: 542 nM

Q: And the Ki (Cannabinoid receptor 2)?
A: 456 nM

Q: With `CCCCCCCc1cc(O)c2c(c1)OC(C)(C)[C@@H]1CC=C(C)C[C@@H]21` as the molecule, how does the Ki (Cannabinoid receptor 1) read?
A: 0.43 nM

Q: And the Ki (Cannabinoid receptor 2)?
A: 0.39 nM

Q: For `CCCCCC1CCc2c(cc3c(c2O)[C@@H]2CC(C)=CC[C@H]2C(C)(C)O3)C1` (stereo partly drawn), which Ki (Cannabinoid receptor 1) is on record?
A: 402 nM

Q: And the Ki (Cannabinoid receptor 2)?
A: 162 nM
